Numbered stars: 1 amine (or outer) side, 2 acyl side, 3 side chain; on linkers, the order of the positions; unused ones are H or OH. Side chains are listed from the residue outwards. Peptide text beside a SMILES is read from it. * marks the point of attachment. C18 diacid = O=C(O)CCCCCCCCCCCCCCCCC(=O)*; γGlu = O=C(O)[C@H](CCC(=O)[*:2])N[*:1]; AEEA = NCCOCCOCC(=O)O
Test: Assay (II) PK i.v. minipig, in vivo half-life
Parameters: species or system Göttingen mini-pigs
Conditions: male, Göttingen, iv, Table 2, PP(2-36) based, crude sample, i.v. minipig, read-out: Half-life minipig, Assay (II) (converted)
Procedure, shortened: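 Male Göttingen mini-pigs (18–22 kg, n=5) received 6 nmol/kg i.v. via central catheter, formulated in 50 mM K2HPO4, 0.05% tween 80, pH 8.0. EDTA plasma sampled pre-dose to 240 h, quantified by TFC/LC/MS/MS (MRM, range 1-2000 nmol/l); half-life from non-compartmental analysis per animal.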

Row | Compound | half-life
1 | CC[C@H](C)[C@H](NC(=O)[C@H](Cc1ccc(O)cc1)NC(=O)[C@H](CCCNC(=N)N)NC(=O)[C@H](CCCNC(=N)N)NC(=O)[C@H](CC(C)C)NC(=O)[C@H](CC(=O)O)NC(=O)[C@H](C)NC(=O)[C@H](C)NC(=O)[C@H](Cc1ccc(O)cc1)NC(=O)[C@H](CCC(N)=O)NC(=O)[C@H](C)NC(=O)[C@H](CCSC)NC(=O)[C@H](CCC(N)=O)NC(=O)[C@H](CCC(=O)O)NC(=O)[C@@H]1CCCN1C(=O)[C@@H](NC(=O)[C@H](C)NC(=O)[C@H](CCCCNC(=O)COCCOCCNC(=O)COCCOCCNC(=O)CC[C@H](NC(=O)CCCCCCCCCCCCCCCCC(=O)O)C(=O)O)NC(=O)[C@H](CC(=O)O)NC(=O)CNC(=O)[C@@H]1CCCN1C(=O)[C@H](Cc1ccc(O)cc1)NC(=O)[C@@H](NC(=O)[C@@H]1CCCN1C(=O)[C@H](CCC(=O)O)NC(=O)[C@H](CC(C)C)NC(=O)[C@@H]1CCCN1)C(C)C)[C@@H](C)O)C(=O)N[C@@H](CC(N)=O)C(=O)N[C@@H](CCSC)C(=O)N[C@@H](CC(C)C)C(=O)N[C@H](C(=O)N[C@@H](CCCNC(=N)N)C(=O)N1CCC[C@H]1C(=O)N[C@@H](CCCNC(=N)N)C(=O)N[C@@H](Cc1ccc(O)cc1)C(N)=O)[C@@H](C)O [Compound W] | 29 h

Same assay, conditions: male, Göttingen, minipig, iv, Half-life minipig, Assay (II)

Row | Compound | half-life
2 | CC[C@H](C)[C@H](NC(=O)[C@H](Cc1ccc(O)cc1)NC(=O)[C@H](CCCNC(=N)N)NC(=O)[C@H](CCCNC(=N)N)NC(=O)[C@H](CC(C)C)NC(=O)[C@H](CC(=O)O)NC(=O)[C@H](C)NC(=O)[C@H](C)NC(=O)[C@H](Cc1ccc(O)cc1)NC(=O)[C@H](CCC(N)=O)NC(=O)[C@H](C)NC(=O)[C@H](CCSC)NC(=O)[C@H](CCC(N)=O)NC(=O)[C@H](CCC(=O)O)NC(=O)[C@@H]1CCCN1C(=O)[C@@H](NC(=O)[C@H](C)NC(=O)[C@H](CC(N)=O)NC(=O)[C@H](CC(=O)O)NC(=O)CNC(=O)[C@@H]1CCCN1C(=O)[C@H](Cc1ccc(O)cc1)NC(=O)[C@@H](NC(=O)[C@H](CCCCNC(=O)COCCOCCNC(=O)COCCOCCNC(=O)CC[C@H](NC(=O)CCCCCCCCCCCCCCCCC(=O)O)C(=O)O)NC(=O)[C@H](CCC(=O)O)NC(=O)[C@H](CC(C)C)NC(=O)[C@@H]1CCCN1)C(C)C)[C@@H](C)O)C(=O)N[C@@H](CC(N)=O)C(=O)N[C@@H](CCSC)C(=O)N[C@@H](CC(C)C)C(=O)N[C@H](C(=O)N[C@@H](CCCNC(=N)N)C(=O)N1CCC[C@H]1C(=O)N[C@@H](CCCNC(=N)N)C(=O)N[C@@H](Cc1ccc(O)cc1)C(N)=O)[C@@H](C)O [Compound AC] | 11 h
3 | CC[C@H](C)[C@H](NC(=O)[C@H](Cc1ccc(O)cc1)NC(=O)[C@H](CCCNC(=N)N)NC(=O)[C@H](CCCNC(=N)N)NC(=O)[C@H](CC(C)C)NC(=O)[C@H](CC(=O)O)NC(=O)[C@H](C)NC(=O)[C@H](C)NC(=O)[C@H](Cc1ccc(O)cc1)NC(=O)[C@H](CCC(N)=O)NC(=O)[C@H](C)NC(=O)[C@H](CCCCNC(=O)COCCOCCNC(=O)COCCOCCNC(=O)CC[C@H](NC(=O)CCCCCCCCCCCCCCCCC(=O)O)C(=O)O)NC(=O)[C@H](CCC(N)=O)NC(=O)[C@H](CCC(=O)O)NC(=O)[C@@H]1CCCN1C(=O)[C@@H](NC(=O)[C@H](C)NC(=O)[C@H](CC(N)=O)NC(=O)[C@H](CC(=O)O)NC(=O)CNC(=O)[C@@H]1CCCN1C(=O)[C@H](Cc1ccc(O)cc1)NC(=O)[C@@H](NC(=O)[C@@H]1CCCN1C(=O)[C@H](CCC(=O)O)NC(=O)[C@H](CC(C)C)NC(=O)[C@@H]1CCCN1)C(C)C)[C@@H](C)O)C(=O)N[C@@H](CC(N)=O)C(=O)N[C@@H](CCSC)C(=O)N[C@@H](CC(C)C)C(=O)N[C@H](C(=O)N[C@@H](CCCNC(=N)N)C(=O)N1CCC[C@H]1C(=O)N[C@@H](CCCNC(=N)N)C(=O)N[C@@H](Cc1ccc(O)cc1)C(N)=O)[C@@H](C)O [Compound Q] (H-PLEPVYPGDNATPEQK([AEEA-AEEA-γGlu-C18 diacid])AQYAADLRRYINMLTRPRY-NH2; N-terminus and C-terminus assumed) | 56 h
4 | CC[C@H](C)[C@H](NC(=O)[C@H](Cc1ccc(O)cc1)NC(=O)[C@H](CCCNC(=N)N)NC(=O)[C@H](CCCNC(=N)N)NC(=O)[C@H](CC(C)C)NC(=O)[C@H](CC(=O)O)NC(=O)[C@H](C)NC(=O)[C@H](C)NC(=O)[C@H](Cc1ccc(O)cc1)NC(=O)[C@H](CCC(N)=O)NC(=O)[C@H](C)NC(=O)[C@H](CCSC)NC(=O)[C@H](CCC(N)=O)NC(=O)[C@H](CCC(=O)O)NC(=O)[C@@H]1CCCN1C(=O)[C@@H](NC(=O)[C@H](C)NC(=O)[C@H](CC(N)=O)NC(=O)[C@H](CC(=O)O)NC(=O)CNC(=O)[C@@H]1CCCN1C(=O)[C@H](Cc1ccc(O)cc1)NC(=O)[C@@H](NC(=O)[C@@H]1CCCN1C(=O)[C@H](CCCCNC(=O)COCCOCCNC(=O)COCCOCCNC(=O)CC[C@H](NC(=O)CCCCCCCCCCCCCCCCC(=O)O)C(=O)O)NC(=O)[C@H](CC(C)C)NC(=O)[C@@H]1CCCN1)C(C)C)[C@@H](C)O)C(=O)N[C@@H](CC(N)=O)C(=O)N[C@@H](CCSC)C(=O)N[C@@H](CC(C)C)C(=O)N[C@H](C(=O)N[C@@H](CCCNC(=N)N)C(=O)N1CCC[C@H]1C(=O)N[C@@H](CCCNC(=N)N)C(=O)N[C@@H](Cc1ccc(O)cc1)C(N)=O)[C@@H](C)O [Compound AD] | 52 h
5 | CC[C@H](C)[C@H](NC(=O)[C@H](Cc1ccc(O)cc1)NC(=O)[C@H](CCCNC(=N)N)NC(=O)[C@H](CCCNC(=N)N)NC(=O)[C@H](CC(C)C)NC(=O)[C@H](CC(=O)O)NC(=O)[C@H](C)NC(=O)[C@H](C)NC(=O)[C@H](Cc1ccc(O)cc1)NC(=O)[C@H](CCC(N)=O)NC(=O)[C@H](C)NC(=O)[C@H](CCSC)NC(=O)[C@H](CCC(N)=O)NC(=O)[C@H](CCC(=O)O)NC(=O)[C@@H]1CCCN1C(=O)[C@@H](NC(=O)[C@H](C)NC(=O)[C@H](CC(N)=O)NC(=O)[C@H](CC(=O)O)NC(=O)CNC(=O)[C@@H]1CCCN1C(=O)[C@H](CCCCNC(=O)COCCOCCNC(=O)COCCOCCNC(=O)CC[C@H](NC(=O)CCCCCCCCCCCCCCCCC(=O)O)C(=O)O)NC(=O)[C@@H](NC(=O)[C@@H]1CCCN1C(=O)[C@H](CCC(=O)O)NC(=O)[C@H](CC(C)C)NC(=O)[C@@H]1CCCN1)C(C)C)[C@@H](C)O)C(=O)N[C@@H](CC(N)=O)C(=O)N[C@@H](CCSC)C(=O)N[C@@H](CC(C)C)C(=O)N[C@H](C(=O)N[C@@H](CCCNC(=N)N)C(=O)N1CCC[C@H]1C(=O)N[C@@H](CCCNC(=N)N)C(=O)N[C@@H](Cc1ccc(O)cc1)C(N)=O)[C@@H](C)O [Compound AA] | 17 h

The next lines start with the values.

Row | half-life | Compound
6 | 34 h | CC[C@H](C)[C@H](NC(=O)[C@H](Cc1ccc(O)cc1)NC(=O)[C@H](CCCNC(=N)N)NC(=O)[C@H](CCCNC(=N)N)NC(=O)[C@H](CC(C)C)NC(=O)[C@H](CC(=O)O)NC(=O)[C@H](CCCCNC(=O)COCCOCCNC(=O)COCCOCCNC(=O)CC[C@H](NC(=O)CCCCCCCCCCCCCCCCC(=O)O)C(=O)O)NC(=O)[C@H](C)NC(=O)[C@H](Cc1ccc(O)cc1)NC(=O)[C@H](CCC(N)=O)NC(=O)[C@H](C)NC(=O)[C@H](CCSC)NC(=O)[C@H](CCC(N)=O)NC(=O)[C@H](CCC(=O)O)NC(=O)[C@@H]1CCCN1C(=O)[C@@H](NC(=O)[C@H](C)NC(=O)[C@H](CC(N)=O)NC(=O)[C@H](CC(=O)O)NC(=O)CNC(=O)[C@@H]1CCCN1C(=O)[C@H](Cc1ccc(O)cc1)NC(=O)[C@@H](NC(=O)[C@@H]1CCCN1C(=O)[C@H](CCC(=O)O)NC(=O)[C@@H](N)CC(C)C)C(C)C)[C@@H](C)O)C(=O)N[C@@H](CC(N)=O)C(=O)N[C@@H](CCSC)C(=O)N[C@@H](CC(C)C)C(=O)N[C@H](C(=O)N[C@@H](CCCNC(=N)N)C(=O)N1CCC[C@H]1C(=O)N[C@@H](CCCNC(=N)N)C(=O)N[C@@H](Cc1ccc(O)cc1)C(N)=O)[C@@H](C)O [Compound AT] (H-LEPVYPGDNATPEQMAQYAK([AEEA-AEEA-γGlu-C18 diacid])DLRRYINMLTRPRY-NH2; N-terminus and C-terminus assumed)
7 | 20 h | CC[C@H](C)[C@H](NC(=O)[C@H](Cc1ccc(O)cc1)NC(=O)[C@H](CCCNC(=N)N)NC(=O)[C@H](CCCNC(=N)N)NC(=O)[C@H](CC(C)C)NC(=O)[C@H](CC(=O)O)NC(=O)[C@H](C)NC(=O)[C@H](C)NC(=O)[C@H](Cc1ccc(O)cc1)NC(=O)[C@H](CCC(N)=O)NC(=O)[C@H](C)NC(=O)[C@H](CCSC)NC(=O)[C@H](CCCCNC(=O)COCCOCCNC(=O)COCCOCCNC(=O)CC[C@H](NC(=O)CCCCCCCCCCCCCCCCC(=O)O)C(=O)O)NC(=O)[C@H](CCC(=O)O)NC(=O)[C@@H]1CCCN1C(=O)[C@@H](NC(=O)[C@H](C)NC(=O)[C@H](CC(N)=O)NC(=O)[C@H](CC(=O)O)NC(=O)CNC(=O)[C@@H]1CCCN1C(=O)[C@H](Cc1ccc(O)cc1)NC(=O)[C@@H](NC(=O)[C@@H]1CCCN1C(=O)[C@H](CCC(=O)O)NC(=O)[C@@H](N)CC(C)C)C(C)C)[C@@H](C)O)C(=O)N[C@@H](CC(N)=O)C(=O)N[C@@H](CCSC)C(=O)N[C@@H](CC(C)C)C(=O)N[C@H](C(=O)N[C@@H](CCCNC(=N)N)C(=O)N1CCC[C@H]1C(=O)N[C@@H](CCCNC(=N)N)C(=O)N[C@@H](Cc1ccc(O)cc1)C(N)=O)[C@@H](C)O [Compound AZ] (H-LEPVYPGDNATPEK([AEEA-AEEA-γGlu-C18 diacid])MAQYAADLRRYINMLTRPRY-NH2; N-terminus and C-terminus assumed)

Source: patent US20150141336A1, “Pancreatic Peptide Compounds and Use” (Novo Nordisk A/S, priority 2012, published 2015)
